Data: patent EP0010299A1, “Pharmaceutical composition useful for the treatment of hypercholesteremia” (Merck & Co., Inc., priority 1978, dated 1980)
Several values for one entry are separate records, joined by “and”; a condition that tells them apart may be missing. Equal values may be shown once.

Key:
plasma cholesterol = assay: Combination of compound (II) with cholestyramine in dogs, plasma cholesterol; type: in vivo, Male beagles
Experimental: Male beagles, ranging in weight from 7 to 14 kg. (average 11 kg.), were fed a semi-synthetic diet six weeks prior to the start of the experiment and serum cholesterol levels determined colorimetrically each week in order to obtain base-line values for each dog. At the start of the treatment, animals were divided into three treatment groups. Group A (4 dogs) received 25 mg./kg./day of compound (II) mixed in the diet. Group B (4 dogs) received 12 g./dog/day of cholestyramine mixed' in the diet. Group C (5 dogs) was the untreated control. Treatment was for four weeks, and plasma cholesterol was determined two times per week. After four weeks a combination of compound (II) and cholestyramine was given to dogs in Groups A and B mixed in the diet at 25 mg./kg. and 12 g./dog/day respectively for an additional four weeks. Cholesterol levels were detorminod two times per week during this period.

HMG-CoA reductase [1] = biological target: T1, HMG-CoA reductase (Rattus norvegicus, UniProt P51639); settings: reductase enzyme; no unit printed (molar concentration); read-out: ED50 in the inhibition test; cited from earlier work
T1 sequence (P51639 1-887): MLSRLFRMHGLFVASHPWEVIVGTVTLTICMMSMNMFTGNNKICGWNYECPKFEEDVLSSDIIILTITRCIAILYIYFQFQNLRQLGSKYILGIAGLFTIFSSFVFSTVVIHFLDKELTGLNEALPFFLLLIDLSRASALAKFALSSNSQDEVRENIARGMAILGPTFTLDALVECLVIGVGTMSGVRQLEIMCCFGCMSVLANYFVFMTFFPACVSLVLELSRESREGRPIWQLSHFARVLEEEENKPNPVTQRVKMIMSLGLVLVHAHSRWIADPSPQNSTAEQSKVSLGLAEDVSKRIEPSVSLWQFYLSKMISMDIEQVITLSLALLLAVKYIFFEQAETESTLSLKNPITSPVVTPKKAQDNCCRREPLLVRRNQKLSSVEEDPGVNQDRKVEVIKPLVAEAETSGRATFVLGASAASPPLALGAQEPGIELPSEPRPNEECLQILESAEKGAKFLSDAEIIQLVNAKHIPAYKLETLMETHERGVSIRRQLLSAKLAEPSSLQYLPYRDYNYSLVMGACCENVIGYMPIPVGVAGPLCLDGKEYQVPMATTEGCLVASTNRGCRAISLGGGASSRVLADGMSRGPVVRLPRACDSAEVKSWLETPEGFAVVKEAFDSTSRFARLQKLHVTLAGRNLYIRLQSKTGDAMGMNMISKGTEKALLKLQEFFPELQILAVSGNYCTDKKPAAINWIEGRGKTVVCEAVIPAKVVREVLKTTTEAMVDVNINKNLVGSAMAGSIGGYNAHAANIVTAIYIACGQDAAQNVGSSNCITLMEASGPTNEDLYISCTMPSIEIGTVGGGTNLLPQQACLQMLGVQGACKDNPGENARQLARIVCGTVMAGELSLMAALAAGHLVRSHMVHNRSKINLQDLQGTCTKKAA

serum cholesterol = settings: acutely treated rat; Endo et al. 1976; cited from earlier work
serum sterol levels = settings: Bensch et al. 1978, cited from earlier work
HMG-CoA reductase [2] = settings: fed rats three hours following the administration; Bensch et al. 1978; cited from earlier work
[3] = Group A average (4 dogs), compound (II) 25 mg./kg./day mixed in the diet, 4 weeks
[4] = Group A, individual dogs, compound (II) 25 mg./kg./day mixed in the diet, 4 weeks

SMILES: CCC(C)C(=O)OC1CCC=C2C=CC(C)C(CCC3CC(O)CC(=O)O3)C21 (centres unmarked) [compound (II), 1,2,3,7,8,8a-hexahydro-7-methyl-8-[2-(3,4,5,6-tetra-hydro-4-hydroxy-6-oxo-2H-pyran-2-yl]ethyl)-1-naphthyl 2-methyl butanoate]
- reduction in plasma cholesterol level plateauing by four weeks (plasma cholesterol; Fig. 1, Group A, 25 mg./kg./day of compound (II)): 36 % of control
- PLASMA CHOLESTEROL, 4 Weeks, % change from Start, average (plasma cholesterol; [3]): -35.6%
- PLASMA CHOLESTEROL, 4 Weeks, average (plasma cholesterol; [3]): 82.5 mg/dL
- PLASMA CHOLESTEROL, 4 Weeks (plasma cholesterol; [4]): 76 mg./dl and 70 mg./dl and 92 mg./dl (2×)
- PLASMA CHOLESTEROL, 4 Weeks, % change from Start (plasma cholesterol; [4]): -36.7% and -30.7% and -40.4% and -34.3%
- decrease of plasma cholesterol, average (plasma cholesterol; four weeks single agent in the diet: compound (II) 25 mg./kg. (Group A), cholestyramine 12 g./dog/day (Group B)): 35.6%
- IC50 (HMG-CoA reductase [1]): ~10 nM
- serum cholesterol levels (serum cholesterol): reduced
- liver or liver microsomal cholesterol concentration (serum sterol levels): no change
- effect on serum sterol levels (serum sterol levels; compared with fed or fasted controls): no effect
- HMG-CoA reductase (HMG-CoA reductase [2]): marked increase
